Measurements taken from US10533003B2, “Polyheteroarl histone deacetylase inhibitors and their use in therapy” (Karus Therapeutics Limited, priority 2014, dated 2020).

Legend:
Human HDAC1 = biological target: T1, Human HDAC1 (Homo sapiens, UniProt Q13547); test: Biochemical HDAC inhibition assay, acetylated AMC-labeled peptide substrate, HDAC1; settings: 2 hours at 30° C., read-out: IC50 (nM) HDAC 1
T1 construct: full length with C-terminal His-tag and C-terminal FLAG-tag; His-tag (C); FLAG-tag (C); host or cells: baculovirus expression system
Experimental: (§1) Activity against all zinc-dependent HDACs 1 to 11 was assessed by using an acetylated AMC-labeled peptide substrate. The substrate RHKKAc was used for all class I and IIb HDACs; for HDAC8, the substrate used was RHKAcKAc. Activity against the class IIa HDACs (HDAC4, 5, 7, 9) was determined using a class IIa-specific substrate, Acetyl-Lys(trifluoroacetyl)-AMC (Lahm et al, 2007, PNAS, 104, 17335-17340). All assays were based on the AMC-labeled substrate and developer combination.
(§2) The protocol involved a two-step reaction: first, the substrate with the acetylated lysine side chain is incubated with a sample containing HDAC activity, to produce the deacetylated products, which are then digested in the second step by the addition of developer to produce the fluorescent signal proportional to the amount of deacetylated substrates.
Human HDAC1 (GenBank Accession No. NM_004964), full length with C-terminal His-tag and C-terminal FLAG-tag, MW=56 kDa, expressed in baculovirus expression system.
(§3) Assay Buffer: 50 mM Tris-HCl, pH8.0, 137 mM NaCl, 2.7 mM KCl, 1 mM MgCl2. Before use, 1 mg/mL BSA and DMSO are added.
HDAC1: 2.68 nM HDAC1 and 50 m M HDAC substrate are in the reaction buffer with 1% DMSO final. Incubate for 2 hours at 30° C.
(§4) Stage 1: Deacetylation of substrate by incubation of HDAC enzymes with corn pounds
(§5) Stage 2: Development by addition of Developer to digest the deacetylated substrate, and generate the fluorescent colour; Detection: 360/460 Ex/Em

Recombinant human HDAC6 = biological target: T2, Recombinant human HDAC6 (Homo sapiens, UniProt Q9UBN7); test: Biochemical HDAC inhibition assay, acetylated AMC-labeled peptide substrate, HDAC6; settings: 2 hours at 30° C., read-out: IC50 (nM) HDAC 6
T2 construct: full length, MW=180 kDa, was expressed by baculovirus in Sf9 insect cells; GST (N); host or cells: Sf9 insect cells (baculovirus)
T2 sequence (Q9UBN7 1-1215): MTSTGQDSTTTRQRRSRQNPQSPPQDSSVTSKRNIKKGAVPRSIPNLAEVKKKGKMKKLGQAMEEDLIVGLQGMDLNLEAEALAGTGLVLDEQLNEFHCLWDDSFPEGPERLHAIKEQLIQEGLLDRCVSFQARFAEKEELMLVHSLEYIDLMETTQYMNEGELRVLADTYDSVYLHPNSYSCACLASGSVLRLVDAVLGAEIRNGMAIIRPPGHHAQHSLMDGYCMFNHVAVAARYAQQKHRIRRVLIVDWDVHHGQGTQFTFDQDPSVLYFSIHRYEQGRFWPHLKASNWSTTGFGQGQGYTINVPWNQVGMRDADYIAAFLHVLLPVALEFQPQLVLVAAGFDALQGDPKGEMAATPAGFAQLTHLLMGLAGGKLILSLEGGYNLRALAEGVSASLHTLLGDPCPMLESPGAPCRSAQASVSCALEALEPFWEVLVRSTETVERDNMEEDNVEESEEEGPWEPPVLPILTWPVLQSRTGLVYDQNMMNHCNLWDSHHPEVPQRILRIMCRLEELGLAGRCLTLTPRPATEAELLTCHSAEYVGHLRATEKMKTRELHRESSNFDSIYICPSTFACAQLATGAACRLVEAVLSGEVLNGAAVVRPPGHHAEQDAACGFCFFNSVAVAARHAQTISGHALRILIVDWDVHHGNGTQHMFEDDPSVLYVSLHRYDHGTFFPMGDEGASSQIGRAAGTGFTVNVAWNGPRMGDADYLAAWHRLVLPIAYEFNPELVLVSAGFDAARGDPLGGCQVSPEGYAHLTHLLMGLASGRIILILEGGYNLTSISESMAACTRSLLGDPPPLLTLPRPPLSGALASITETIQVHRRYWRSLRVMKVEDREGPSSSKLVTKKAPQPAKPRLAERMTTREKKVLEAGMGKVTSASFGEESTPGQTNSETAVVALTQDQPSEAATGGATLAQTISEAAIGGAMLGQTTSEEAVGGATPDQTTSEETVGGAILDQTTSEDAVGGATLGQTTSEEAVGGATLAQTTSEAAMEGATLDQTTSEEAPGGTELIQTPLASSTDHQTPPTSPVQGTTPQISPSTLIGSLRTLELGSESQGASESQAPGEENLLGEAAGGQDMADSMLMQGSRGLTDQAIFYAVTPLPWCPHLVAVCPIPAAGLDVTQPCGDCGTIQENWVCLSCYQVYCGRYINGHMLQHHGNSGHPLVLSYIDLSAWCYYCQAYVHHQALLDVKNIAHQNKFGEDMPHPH
Experimental: as §1, §2
Recombinant human HDAC6 (GenBank Accession No. BC069243), full length, MW=180 kDa, was expressed by baculovirus in Sf9 insect cells using an N-terminal GST tag.
as §3
HDAC6: 0.56 nM HDAC6 and […] HDAC substrate are in the reaction buffer with 1% DMSO final. Incubate for 2 hours at 30° C.
as §4, §5

T1 sequence (Q13547 whole entry): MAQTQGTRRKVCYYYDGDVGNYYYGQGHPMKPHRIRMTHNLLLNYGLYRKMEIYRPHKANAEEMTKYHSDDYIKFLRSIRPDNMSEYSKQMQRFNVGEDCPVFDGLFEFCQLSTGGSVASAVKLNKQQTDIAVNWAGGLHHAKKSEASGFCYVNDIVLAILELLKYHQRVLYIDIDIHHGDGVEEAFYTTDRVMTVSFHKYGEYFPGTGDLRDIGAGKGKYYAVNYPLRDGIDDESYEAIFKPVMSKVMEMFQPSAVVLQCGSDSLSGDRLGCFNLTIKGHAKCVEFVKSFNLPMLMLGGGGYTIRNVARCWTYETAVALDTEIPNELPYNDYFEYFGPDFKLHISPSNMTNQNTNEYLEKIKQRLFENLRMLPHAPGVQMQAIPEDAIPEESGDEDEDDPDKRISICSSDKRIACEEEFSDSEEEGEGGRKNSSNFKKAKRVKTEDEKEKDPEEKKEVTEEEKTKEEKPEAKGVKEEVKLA

SMILES	IC50 (Human HDAC1) [nM]	IC50 (Recombinant human HDAC6) [nM]
Cc1cc(-c2ccnc(N(Cc3ccc(C(=O)NO)cc3)c3cnccn3)c2)c(C)o1 [Example F, 4-({[4-(2,5-Dimethylfuran-3-yl)pyridin-2-yl](pyrazin-2-yl)amino}methyl)-N-hydroxybenzamide]	1000 to 10000	≤ 500
O=C(NO)c1ccc(CN(c2cnccn2)c2cc(-c3c[nH]nc3C(F)(F)F)ccn2)cc1 [Example G, N-Hydroxy-4-{[(pyrazin-2-yl)({4-[3-(trifluoromethyl)-1H-pyrazol-4-yl]pyridin-2-yl})amino]methyl}benzamide]	1000 to 10000	≤ 500
Cc1noc(C)c1-c1ccnc(N(Cc2ccc(C(=O)NO)cc2)c2cnccn2)c1 [Example H, 4-({[4-(Dimethyl-1,2-oxazol-4-yl)pyridin-2-yl](pyrazin-2-yl)amino}methyl)-N-hydroxybenzamide]	≥ 10000	≤ 500
Cc1n[nH]cc1-c1ccnc(N(Cc2ccc(C(=O)NO)cc2)c2cnccn2)c1 [Example I, N-Hydroxy-4-({[4-(3-methyl-1H-pyrazol-4-yl)pyridin-2-yl](pyrazin-2-yl)amino}methyl)benzamide]	≥ 10000	≤ 500
Cc1n[nH]c(C)c1-c1ccnc(N(Cc2ccc(C(=O)NO)cc2)c2cnccn2)c1 [Example J, 4-({[4-(3,5-Dimethyl-1H-pyrazol-4-yl)pyridin-2-yl](pyrazin-2-yl)amino}methyl)-N-hydroxybenzamide]	1000 to 10000	≤ 500
O=C(NO)c1ccc(CN(c2cnccn2)c2cc(-c3cc[nH]n3)ccn2)cc1 [Example L, N-Hydroxy-4-{[(pyrazin-2-yl)[4-(1H-pyrazol-3-yl)pyridin-2-yl]amino]methyl}benzamide]	1000 to 10000	≤ 500
Nc1ccc(-c2ccnc(N(Cc3ccc(C(=O)NO)cc3F)c3cnccn3)c2)cn1 [Example P, 4-({[4-(6-Aminopyridin-3-yl)pyridin-2-yl](pyrazin-2-yl)amino}methyl)-3-fluoro-N-hydroxybenzamide]	500 to 1000	≤ 500
Nc1cc(-c2ccnc(N(Cc3ccc(C(=O)NO)cc3F)c3cnccn3)c2)ccn1 [Example Q, 4-({[4-(2-Aminopyridin-4-yl)pyridin-2-yl](pyrazin-2-yl)amino}methyl)-3-fluoro-N-hydroxybenzamide]	1000 to 10000	≤ 500
CS(=O)(=O)Nc1ccc(-c2ccnc(N(Cc3ccc(C(=O)NO)cc3F)c3cnccn3)c2)cn1 [Example T, 3-Fluoro-N-hydroxy-4-({[4-(6-methanesulfonamidopyridin-3-yl)pyridin-2-yl](pyrazin-2-yl)amino}methyl)benzamide]	≥ 10000	≤ 500
CS(=O)(=O)Nc1cc(-c2ccnc(N(Cc3ccc(C(=O)NO)cc3F)c3cnccn3)c2)ccn1 [Example U, 3-Fluoro-N-hydroxy-4-({[4-(2-methanesulfonamidopyridin-4-yl)pyridin-2-yl](pyrazin-2-yl)amino}methyl)benzamide]	≥ 10000	≤ 500

Now from value to compound:

IC50 (Human HDAC1) [nM]	IC50 (Recombinant human HDAC6) [nM]	SMILES
1000 to 10000	≤ 500	Nc1ncc(-c2ccnc(N(Cc3ccc(C(=O)NO)cc3)c3cnccn3)c2)cn1 [Example A, 4-({[4-(2-Aminopyrimidin-5-yl)pyridin-2-yl](pyrazin-2-yl)amino}methyl)-N-hydroxybenzamide]
1000 to 10000	≤ 500	O=C(NO)c1ccc(CN(c2cnccn2)c2cc(-c3cnc4[nH]ccc4c3)ccn2)cc1 [Example B, N-Hydroxy-4-{[(pyrazin-2-yl)(4-{1H-pyrrolo[2,3-b]pyridin-5-yl}pyridin-2-yl)amino]methyl}benzamide]
500 to 1000	≤ 500	O=C(NO)c1ccc(CN(c2cnccn2)c2cc(-c3ccc4[nH]ccc4c3)ccn2)cc1 [Example C, N-Hydroxy-4-({[4-(1H-indol-5-yl)pyridin-2-yl](pyrazin-2-yl)amino}methyl)benzamide]
1000 to 10000	≤ 500	O=C(NO)c1ccc(CN(c2cnccn2)c2cc(-c3cn[nH]c3)ccn2)cc1 [Example D, N-Hydroxy-4-{[(pyrazin-2-yl)[4-(1H-pyrazol-4-yl)pyridin-2-yl]amino]methyl}benzamide]
500 to 1000	≤ 500	O=C(NO)c1ccc(CN(c2cnccn2)c2cc(-c3ccoc3)ccn2)cc1 [Example E, 4-({[4-(Furan-3-yl)pyridin-2-yl](pyrazin-2-yl)amino}methyl)-N-hydroxybenzamide]
1000 to 10000	≤ 500	O=C(NO)c1ccc(CN(c2cnccn2)c2cc(-c3c[nH]c4ncccc34)ccn2)cc1 [Example K, N-Hydroxy-4-{[(pyrazin-2-yl)(4-{1H-pyrrolo[2,3-b]pyridin-3-yl}pyridin-2-yl)amino]methyl}benzamide]
1000 to 10000	≤ 500	Nc1ncc(-c2ccnc(N(Cc3ccc(C(=O)NO)cc3)c3cnccn3)c2)cc1F [Example M, 4-({[4-(6-Amino-5-fluoropyridin-3-yl)pyridin-2-yl](pyrazin-2-yl)amino}methyl)-N-hydroxybenzamide]
1000 to 10000	≤ 500	CC(=O)Nc1ccc(-c2ccnc(N(Cc3ccc(C(=O)NO)cc3)c3cnccn3)c2)cn1 [Example N, 4-({[4-(6-Acetamidopyridin-3-yl)pyridin-2-yl](pyrazin-2-yl)amino}methyl)-N-hydroxybenzamide]
1000 to 10000	≤ 500	CC(=O)Nc1cc(-c2ccnc(N(Cc3ccc(C(=O)NO)cc3)c3cnccn3)c2)ccn1 [Example O, 4-({[4-(2-Acetamidopyridin-4-yl)pyridin-2-yl](pyrazin-2-yl)amino}methyl)-N-hydroxybenzamide]
1000 to 10000	≤ 500	CC(=O)Nc1ccc(-c2ccnc(N(Cc3ccc(C(=O)NO)cc3F)c3cnccn3)c2)cn1 [Example R, 4-({[4-(6-Acetamidopyridin-3-yl)pyridin-2-yl](pyrazin-2-yl)amino}methyl)-3-fluoro-N-hydroxybenzamide]
1000 to 10000	≤ 500	CC(=O)Nc1cc(-c2ccnc(N(Cc3ccc(C(=O)NO)cc3F)c3cnccn3)c2)ccn1 [Example S, 4-({[4-(2-Acetamidopyridin-4-yl)pyridin-2-yl](pyrazin-2-yl)amino}methyl)-3-fluoro-N-hydroxybenzamide]
